Laboratory results published in publication PMC12028158, “Synthesis and In Vitro Evaluation of the Anticancer Effect of Novel Phosphonium Vindoline Derivatives” (International Journal of Molecular Sciences, 2025).

Tests used:
Format in all cases: cell-based
[1] = test system: 786-0; assay: NCI60 one-dose screen; details: Homo sapiens; 786-0, 10 μM, one-dose; read-out: Growth percent
[2] = test system: Renal Cancer panel; assay: NCI60 five-dose screen, panel mean; details: Homo sapiens; mean over Renal Cancer panel; read-out: GI50 Mean
[3] = test system: NCI-H522; assay: NCI60 one-dose screen; details: Homo sapiens; NCI-H522, 10 μM, one-dose; read-out: Growth percent
[4] = test system: HOP-92; assay: NCI60 five-dose screen; details: Homo sapiens; HOP-92, Non-small Cell Lung Cancer; read-out: GI50
[5] = test system: SK-MEL-2; assay: NCI60 one-dose screen; details: Homo sapiens; SK-MEL-2, 10 μM, one-dose; read-out: Growth percent
[6] = test system: KM12; assay: NCI60 five-dose screen; details: Homo sapiens, KM12, KM12, Colon Cancer; read-out: GI50
[7] = test system: NCI-H460; assay: NCI60 five-dose screen; details: Homo sapiens; NCI-H460, Non-small Cell Lung Cancer; read-out: GI50
[8] = test system: SK-OV-3; assay: NCI60 five-dose screen; details: Homo sapiens; SK-OV-3, Ovarian Cancer; read-out: GI50
[9] = test system: DU-145; assay: NCI60 one-dose screen; details: Homo sapiens; DU-145, 10 μM, one-dose; read-out: Growth percent
[10] = test system: LOX IMVI; assay: NCI60 one-dose screen; details: Homo sapiens, 10 μM, one-dose, read-out: Growth percent
[11] = test system: A549/ATCC; assay: NCI60 five-dose screen; details: Homo sapiens; A549/ATCC, Non-small Cell Lung Cancer; read-out: GI50
[12] = test system: M14; assay: NCI60 five-dose screen; details: Homo sapiens; M14, Melanoma; read-out: GI50
[13] = test system: MDA-MB-231/ATCC; assay: NCI60 one-dose screen; details: Homo sapiens; MDA-MB-231/ATCC, 10 μM, one-dose; read-out: Growth percent
[14] = test system: SK-OV-3; assay: NCI60 one-dose screen; details: Homo sapiens; SK-OV-3, 10 μM, one-dose; read-out: Growth percent
[15] = test system: CAKI-1; assay: NCI60 five-dose screen; details: Homo sapiens; CAKI-1, Renal Cancer; read-out: GI50
[16] = test system: 60 human tumor cell lines (NCI60); assay: NCI60 one-dose screen, overall mean; details: one-dose
[17] = test system: NCI-H226; assay: NCI60 one-dose screen; details: Homo sapiens; NCI-H226, 10 μM, one-dose; read-out: Growth percent
[18] = test system: HCT-15; assay: NCI60 one-dose screen; details: Homo sapiens; HCT-15, 10 μM, one-dose; read-out: Growth percent
[19] = test system: UACC-257; assay: NCI60 five-dose screen; details: Homo sapiens, UACC-257, UACC-257, Melanoma; read-out: GI50
[20] = test system: TK-10; assay: NCI60 one-dose screen; details: Homo sapiens; TK-10, 10 μM, one-dose; read-out: Growth percent
[21] = test system: HT29; assay: NCI60 one-dose screen; details: Homo sapiens, HT-29; HT29, 10 μM, one-dose; read-out: Growth percent
[22] = test system: MDA-MB-435; assay: NCI60 five-dose screen; details: Homo sapiens; MDA-MB-435, Melanoma; read-out: GI50
[23] = test system: Melanoma panel; assay: NCI60 five-dose screen, panel mean; details: Homo sapiens; mean over Melanoma panel; read-out: GI50 Mean
[24] = test system: MDA-MB-468; assay: NCI60 one-dose screen; details: Homo sapiens; MDA-MB-468, 10 μM, one-dose; read-out: Growth percent
[25] = test system: OVCAR-4; assay: NCI60 one-dose screen; details: Homo sapiens; OVCAR-4, 10 μM, one-dose; read-out: Growth percent
[26] = test system: OVCAR-5; assay: NCI60 five-dose screen; details: Homo sapiens; OVCAR-5, Ovarian Cancer; read-out: GI50
[27] = test system: SW-620; assay: NCI60 one-dose screen; details: Homo sapiens; SW-620, 10 μM, one-dose; read-out: Growth percent
[28] = test system: MOLT-4; assay: NCI60 five-dose screen; details: Homo sapiens; MOLT-4, Leukemia; read-out: GI50
[29] = test system: COLO 205; assay: NCI60 one-dose screen; details: Homo sapiens; COLO 205, 10 μM, one-dose; read-out: Growth percent
[30] = test system: NCI-H23; assay: NCI60 one-dose screen; details: Homo sapiens; NCI-H23, 10 μM, one-dose; read-out: Growth percent
[31] = test system: U251; assay: NCI60 five-dose screen; details: Homo sapiens, U-251, U251, CNS Cancer; read-out: GI50
[32] = test system: MALME-3M; assay: NCI60 one-dose screen; details: Homo sapiens; MALME-3M, 10 μM, one-dose; read-out: Growth percent
[33] = test system: OVCAR-5; assay: NCI60 one-dose screen; details: Homo sapiens; OVCAR-5, 10 μM, one-dose; read-out: Growth percent
[34] = test system: NCI-H522; assay: NCI60 five-dose screen; details: Homo sapiens; NCI-H522, Non-small Cell Lung Cancer; read-out: GI50
[35] = test system: ACHN; assay: NCI60 five-dose screen; details: Homo sapiens, Renal Cancer, read-out: GI50
[36] = test system: HOP-92; assay: NCI60 one-dose screen; details: Homo sapiens; HOP-92, 10 μM, one-dose; read-out: Growth percent
[37] = test system: RPMI-8226; assay: NCI60 one-dose screen; details: Homo sapiens; RPMI-8226, 10 μM, one-dose; read-out: Growth percent
[38] = test system: HL-60(TB); assay: NCI60 five-dose screen; details: Homo sapiens, HL-60, HL-60(TB), Leukemia; read-out: GI50
[39] = test system: RXF 393; assay: NCI60 five-dose screen; details: Homo sapiens; RXF 393, Renal Cancer; read-out: GI50
[40] = test system: Non-small Cell Lung Cancer panel; assay: NCI60 five-dose screen, panel mean; details: Homo sapiens; mean over Non-small Cell Lung Cancer panel; read-out: GI50 Mean
[41] = test system: T-47D; assay: NCI60 one-dose screen; details: Homo sapiens, T47D; T-47D, 10 μM, one-dose; read-out: Growth percent
[42] = test system: HCC-2998; assay: NCI60 five-dose screen; details: Homo sapiens; HCC-2998, Colon Cancer; read-out: GI50
[43] = test system: SK-MEL-28; assay: NCI60 five-dose screen; details: Homo sapiens; SK-MEL-28, Melanoma; read-out: GI50
[44] = test system: A498; assay: NCI60 five-dose screen; details: Homo sapiens; A498, Renal Cancer; read-out: GI50
[45] = test system: OVCAR-4; assay: NCI60 five-dose screen; details: Homo sapiens; OVCAR-4, Ovarian Cancer; read-out: GI50

Q: What does the source list for `CCC12C=CCN3CCC4(c5ccc(OC)cc5N(C)C4C(O)(C(=O)OC)C1OC(=O)c1ccc(C[P+](c4ccccc4)(c4ccccc4)c4ccccc4)cc1)C32` (stereo not shown) [compound 12]?
A: activity at 10 µM [1]: -47.8%; GI50 [2]: 8.3 µM; activity at 10 µM [3]: -17.4%; GI50 [4]: 0.404 µM; activity at 10 µM [5]: -77.8%; GI50 [6]: 0.514 µM; GI50 [7]: 1.66 µM; GI50 [8]: 2.7 µM; activity at 10 µM [9]: 16.9%; activity at 10 µM [10]: -39.8%; GI50 [11]: 2.09 µM; GI50 [12]: 1.35 µM; activity at 10 µM [13]: -91.5%; activity at 10 µM [14]: -13.2%; GI50 [15]: 3.26 µM; activity at 10 µM ([16]; Homo sapiens, mean over 60 cell lines, 10 μM, read-out: Mean growth percent): -37.1%; cytotoxicity (in words) ([16]; 10 µM): moderate cytotoxicity; activity at 10 µM [17]: -23.1%; activity at 10 µM [18]: 90.1%; GI50 [19]: 0.918 µM; activity at 10 µM [20]: 21.4%; activity at 10 µM [21]: -39.4%; GI50 [22]: 0.483 µM; GI50 [23]: 1.03 µM; activity at 10 µM [24]: -49.2%; activity at 10 µM [25]: 7.65%; GI50 [26]: 1.99 µM; activity at 10 µM [27]: -66%; GI50 [28]: 1.47 µM; activity at 10 µM [29]: -87.2%; activity at 10 µM [30]: 0.48%; GI50 [31]: 0.644 µM; activity at 10 µM [32]: -95.5%; activity at 10 µM [33]: 2.52%; GI50 [34]: 0.491 µM; GI50 [35]: 18.5 µM; activity at 10 µM [36]: -73.4%; activity at 10 µM [37]: -50.8%; GI50 [38]: 0.297 µM; GI50 [39]: 1.14 µM; GI50 [40]: 2.05 µM; activity at 10 µM [41]: 7.1%; GI50 [42]: 0.991 µM; GI50 [43]: 0.52 µM; GI50 [44]: 16.4 µM; GI50 [45]: 1.05 µM
